{"source": "patent US20050169984A1", "about": "“Pharmaceutical hard capsule containing inorganic substance” (DAIICHI SUNTORY PHARMA CO., LTD., priority 2004, published 2005)", "key": {"[1]": {"details": "background statement; cited from earlier work"}, "[2]": {"assay": "Generation of Compound 2 on sealed non-contact storage of faropenem daloxate with hard gelatin capsule (HPLC peak area ratio)", "format": "physicochemical", "text": "(drifting moisture) for 7 days, and observed for the change. 1, generation quantity of Compound 2 has increased and hard gelatin capsule has insolubilized after 3 days of preservation. From the result, it is confirmed that insolubilization of hard gelatin capsule is caused by low molecular, gaseous aldehyde-like substance generated from degradation of faropenem daloxate.\nFIG. 2 is showing the testing condition of observation for change while faropenem daloxate is kept with hard gelatin capsule without any contact with the capsule in sealed glass container at 60° C. (drifting moisture) for 7 days."}}}
{"smiles": "Cc1oc(=O)oc1COC(=O)C1=C([C@H]2CCCO2)S[C@@H]2[C@@H]([C@@H](C)O)C(=O)N12", "note": "[faropenem daloxate, (5-methyl-2-oxo-1,3-dioxolene-4-yl)methyl (5R,6S)-6-[(R)-1-hydroxyethyl]-7-oxo-3-[(R)-2-tetrahydrofuryl]-4-thia-1-azabicyclo[3.2.0]hept-2-ene-2-carboxylate]", "values": [{"measurement": "oral absorbability", "setting": "[1]", "value": "≥ 70", "unit": "%"}, {"measurement": "Generation quantity of Compound 2 (%)", "setting": "[2]; 60° C./drifting humidity/3 days", "value": 0.02, "unit": "%"}, {"measurement": "Generation quantity of Compound 2 (%)", "setting": "[2]; 60° C./drifting humidity/5 days", "value": 0.04, "unit": "%"}, {"measurement": "Generation quantity of Compound 2 (%)", "setting": "[2]; 60° C./drifting humidity/7 days", "value": 0.07, "unit": "%"}]}
